Tests used:
[1] = biological target: T1, Bcl-wΔ29 (Homo sapiens, UniProt Q92843); assay: Alphascreen GST competition binding assay, benzoylurea compounds vs Biotinylated Bim BH3-26 peptide on GST tagged Bclw ΔC29 protein; conditions: GST tagged Bclw ΔC29 protein 0.05 nM, Biotinylated Bim BH3-26 peptide 3.0 nM, 4 hours at room temperature; values marked a tested in a separate experiment; n.b. = not binding in the assay conditions
T1 construct: GST tagged Bclw ΔC29 protein
T1 sequence (Q92843 1-164 limits assumed): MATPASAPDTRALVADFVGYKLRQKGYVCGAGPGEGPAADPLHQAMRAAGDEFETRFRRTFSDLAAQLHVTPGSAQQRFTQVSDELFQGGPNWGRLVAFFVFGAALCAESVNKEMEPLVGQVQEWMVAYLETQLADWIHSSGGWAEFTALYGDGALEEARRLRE

[2] = biological target: T2, Bcl-xLΔ25 (Homo sapiens, UniProt Q07817); assay: Alphascreen GST competition binding assay, benzoylurea compounds vs Biotinylated Bim BH3-26 peptide on GST tagged Bcl-xL ΔC25 protein; conditions: GST tagged Bcl-xL ΔC25 protein 0.6 nM, Biotinylated Bim BH3-26 peptide 5.0 nM, 4 hours at room temperature; n.b. = not binding in the assay conditions
T2 construct: GST tagged Bcl-xL ΔC25 protein

[3] = biological target: Mcl-1 (Homo sapiens, UniProt Q07820); assay: Alphascreen GST competition binding assay, benzoylurea compounds vs Biotinylated Bak BH3 peptide on GST tagged Mcl-1 protein; conditions: GST tagged Mcl-1 protein 0.4 nM, Biotinylated Bak BH3 peptide 4.0 nM, 4 hours at room temperature; n.b. = not binding in the assay conditions
Sequence of Mcl-1 (Q07820 whole entry, species assumed): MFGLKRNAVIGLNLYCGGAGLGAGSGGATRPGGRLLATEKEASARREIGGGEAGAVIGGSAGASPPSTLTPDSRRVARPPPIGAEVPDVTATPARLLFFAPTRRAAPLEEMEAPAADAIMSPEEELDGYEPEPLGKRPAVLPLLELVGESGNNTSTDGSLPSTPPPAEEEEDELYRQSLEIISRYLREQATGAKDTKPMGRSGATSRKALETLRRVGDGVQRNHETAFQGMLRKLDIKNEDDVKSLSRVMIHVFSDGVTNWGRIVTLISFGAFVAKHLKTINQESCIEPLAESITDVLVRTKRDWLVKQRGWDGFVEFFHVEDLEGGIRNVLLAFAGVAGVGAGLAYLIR

T2 sequence (Q07817 1-208 limits assumed, stated change not applied): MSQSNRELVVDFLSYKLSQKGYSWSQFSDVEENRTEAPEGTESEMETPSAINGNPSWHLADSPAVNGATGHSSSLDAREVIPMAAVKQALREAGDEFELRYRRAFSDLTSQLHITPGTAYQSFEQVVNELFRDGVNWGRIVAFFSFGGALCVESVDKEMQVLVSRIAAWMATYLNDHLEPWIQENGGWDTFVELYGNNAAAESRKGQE

| IC50 [2] [µM] | SMILES | further results |
| --- | --- | --- |
| 148 | CCC(C)N(C(=O)N[C@@H](CSCc1ccccc1)C(=O)O)C(=O)c1cccc(-c2ccccc2)c1 (mixture of isomers) [(4)] | IC50 [1]: 149 µM |
| 70.1 | CCCN(C(=O)N[C@@H](CSCc1ccccc1)C(=O)O)C(=O)c1cccc(-c2ccccc2)c1 [(1)] | IC50 [1]: 38 µM |
| 56.8 | CCCCN(C(=O)N[C@@H](CSCc1ccccc1)C(=O)O)C(=O)c1cccc(-c2ccccc2)c1 [(2)] | IC50 [1]: 57 µM |
| 65.8 | CC(C)CN(C(=O)N[C@@H](CSCc1ccccc1)C(=O)O)C(=O)c1cccc(-c2ccccc2)c1 [(3)] | IC50 [1]: 65 µM |
| 153 | CC(C)N(C(=O)N[C@@H](CSCc1ccccc1)C(=O)O)C(=O)c1cccc(-c2ccccc2)c1 [(5)] | IC50 [1]: 266 µM |
| 54.2 | O=C(O)[C@H](CSCc1ccccc1)NC(=O)N(C(=O)c1cccc(-c2ccccc2)c1)C1CCCCC1 [(6)] | IC50 [1]: 73 µM |
| 45.2 | O=C(O)[C@H](CSCc1ccccc1)NC(=O)N(CC1CCCCC1)C(=O)c1cccc(-c2ccccc2)c1 [(7)] | IC50 [1]: 37 µM |
| 36.4 | O=C(O)[C@H](CSCc1ccccc1)NC(=O)N(Cc1ccccc1)C(=O)c1cccc(-c2ccccc2)c1 [(8)] | IC50 [1]: 46 µM |
| 53 | CCCN(C(=O)N[C@@H](CSCC1CC1)C(=O)O)C(=O)c1cccc(C#Cc2ccccc2)c1 [(128)] | – |
| 37 | CCCN(C(=O)N[C@@H](CSCC1CCC1)C(=O)O)C(=O)c1cccc(C#Cc2ccccc2)c1 [(129)] | – |
| 20 | CC(C)CSC[C@H](NC(=O)N(CC(C)C)C(=O)c1cccc(C#Cc2ccccc2)c1)C(=O)O [(131)] | – |
| 24 | CC(C)CCN(C(=O)N[C@@H](CSCC(C)C)C(=O)O)C(=O)c1cccc(C#Cc2ccccc2)c1 [(132)] | – |
| 27 | CSCCN(C(=O)N[C@@H](CSCC(C)C)C(=O)O)C(=O)c1cccc(C#Cc2ccccc2)c1 [(133)] | – |
| 32 | CCCN(C(=O)N[C@@H](CSCc1ccccc1)C(=O)O)C(=O)c1cccc(C#Cc2ccccc2[N+](=O)[O-])c1 [(135)] | IC50 [3]: 57 µM |
| 23 | CCCN(C(=O)N[C@@H](CSCc1ccccc1)C(=O)O)C(=O)c1cccc(C#CCC(C)C)c1 [(136)] | IC50 [3]: 204 µM |
| 9.5 | CCCN(C(=O)N[C@@H](CSCC(C)C)C(=O)O)C(=O)c1cccc(C#Cc2ccc(F)cc2)c1 [(137)] | IC50 [3]: 132 µM |
| 26 | CCCN(C(=O)N[C@@H](CSCC(C)C)C(=O)O)C(=O)c1cccc(C#Cc2ccc(Cl)cc2)c1 [(138)] | IC50 [3]: 146 µM |
| 28 | CCCN(C(=O)N[C@@H](CSCC(C)C)C(=O)O)C(=O)c1cccc(C#Cc2ccc(Br)cc2)c1 [(139)] | IC50 [3]: 80 µM |
| 44 | CCCN(C(=O)N[C@@H](CSCC(C)C)C(=O)O)C(=O)c1cccc(C#Cc2cccc(F)c2)c1 [(140)] | Mcl-1 IC50 (µM) [3]: n.b.^b |
| 107 | CCCN(C(=O)N[C@@H](CSCC(C)C)C(=O)O)C(=O)c1cccc(C#Cc2ccc(C(C)(C)C)cc2)c1 [(149)] | – |
| – | CCCN(C(=O)N[C@@H](CSCC(C)C)C(=O)O)C(=O)c1cccc(C#Cc2ccncc2)c1 [(150)] | Bcl-xLΔ25 IC50 (µM) [2]: n.b.^b |
| 212 | CCCN(C(=O)N[C@@H](CSCC(C)C)C(=O)O)C(=O)c1cccc(C#Cc2cccnc2)c1 [(151)] | – |
| 48 | CCCN(C(=O)N[C@@H](CSCC(C)C)C(=O)NS(=O)(=O)c1ccc(Br)cc1)C(=O)c1cccc(C#Cc2ccccc2)c1 [(152)] | – |
| 40 | CCCN(C(=O)N[C@@H](CSCC(C)C)C(=O)NS(=O)(=O)c1cccc(Br)c1)C(=O)c1cccc(C#Cc2ccccc2)c1 [(153)] | – |
| 10 | CCCN(C(=O)N[C@@H](CSCC(C)C)C(=O)NS(=O)(=O)c1ccc(NCCSc2ccccc2)c([N+](=O)[O-])c1)C(=O)c1cccc(C#Cc2ccccc2)c1 [(156)] | – |

| SMILES | IC50 [2] [µM] | further results |
| --- | --- | --- |
| CCCCN(C(=O)N[C@@H](CSCC(C)C)C(=O)O)C(=O)c1cccc(C#Cc2ccccc2)c1 [(130)] | 39 | – |
| CCCN(C(=O)N[C@@H](CSCC(C)C)C(=O)NS(=O)(=O)c1ccc(-c2ccccc2)cc1)C(=O)c1cccc(C#Cc2ccccc2)c1 [(154)] | 42 | – |
